# Assay results from patent US20230203059A1, “MACROCYCLIC JAK INHIBITOR AND USES THEREOF” (Biopolar Hongye (Guangdong) Pharmaceutical Co. Ltd., priority 2020, published 2023).
# Legend:
# Type in all cases: biochemical
# JAK2 = JAK2 (Homo sapiens, UniProt O60674); test: JAK kinase activity, homogeneous time-resolved fluorescence (JAK2 reaction system); conditions: ATP 2 μM, JAK2 protein 0.01 ng/μL
# Outline: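 IC50 derived by Hill-equation fit of the 665/615 nm time-resolved fluorescence ratio after EDTA-containing detection mix with anti-phosphosubstrate antibody. Preceding 1 h reaction contained 2 μM ATP, 0.01 ng/μL JAK2, substrate, 50 mM Hepes pH 7.0, 5 mM MgCl2, 1 mM DTT.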
# JAK3 = molecular target: T1, JAK3 (Homo sapiens, UniProt P52333); test: JAK kinase activity, homogeneous time-resolved fluorescence (JAK3 reaction system); conditions: ATP 2 μM, JAK3 protein 0.04 ng/μL; read-out: JAK 3 activity
# T1 sequence (P52333 1-1124): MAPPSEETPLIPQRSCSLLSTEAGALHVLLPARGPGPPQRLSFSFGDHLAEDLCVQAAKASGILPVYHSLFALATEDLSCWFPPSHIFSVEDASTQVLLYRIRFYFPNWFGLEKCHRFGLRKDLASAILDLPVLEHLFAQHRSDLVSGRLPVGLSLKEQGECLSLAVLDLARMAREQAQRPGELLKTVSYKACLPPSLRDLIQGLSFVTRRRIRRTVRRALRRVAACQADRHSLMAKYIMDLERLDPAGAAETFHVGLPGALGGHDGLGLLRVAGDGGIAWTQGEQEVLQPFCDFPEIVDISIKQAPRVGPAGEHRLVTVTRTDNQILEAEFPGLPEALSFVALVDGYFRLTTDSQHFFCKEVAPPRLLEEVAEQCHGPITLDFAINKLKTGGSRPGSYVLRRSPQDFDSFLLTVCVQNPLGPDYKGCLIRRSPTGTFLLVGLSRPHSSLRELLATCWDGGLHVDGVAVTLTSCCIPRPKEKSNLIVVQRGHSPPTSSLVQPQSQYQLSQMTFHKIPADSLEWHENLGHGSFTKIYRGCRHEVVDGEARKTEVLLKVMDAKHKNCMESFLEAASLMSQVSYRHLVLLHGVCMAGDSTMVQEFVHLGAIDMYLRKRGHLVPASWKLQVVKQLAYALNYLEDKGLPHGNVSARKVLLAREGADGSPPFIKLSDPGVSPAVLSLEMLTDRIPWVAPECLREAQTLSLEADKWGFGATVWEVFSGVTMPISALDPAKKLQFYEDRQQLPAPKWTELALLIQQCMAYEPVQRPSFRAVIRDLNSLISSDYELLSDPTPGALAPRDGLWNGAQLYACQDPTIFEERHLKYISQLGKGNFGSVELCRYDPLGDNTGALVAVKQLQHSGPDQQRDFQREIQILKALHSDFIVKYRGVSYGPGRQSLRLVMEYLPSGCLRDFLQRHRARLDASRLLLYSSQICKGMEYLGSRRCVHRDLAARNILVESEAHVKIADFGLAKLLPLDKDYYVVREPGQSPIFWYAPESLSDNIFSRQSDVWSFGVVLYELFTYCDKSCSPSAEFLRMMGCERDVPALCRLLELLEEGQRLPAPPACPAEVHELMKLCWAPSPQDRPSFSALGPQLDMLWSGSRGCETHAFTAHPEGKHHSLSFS
# JAK1 = JAK1 (Homo sapiens, UniProt P23458); test: JAK kinase activity, homogeneous time-resolved fluorescence (JAK1 reaction system); conditions: ATP 2 μM, JAK1 protein 0.2 ng/μL; read-out: JAK 1 activity
# Outline: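 HTRF assay: JAK1 (0.2 ng/μL) with 2 μM ATP and substrate in 50 mM Hepes pH 7.0, 5 mM MgCl2, 1 mM DTT, 1 h. Phospho-substrate antibody/XL-615 detection with EDTA; 665/615 nm ratio, excitation 320 nm. IC50 from Hill-type fit against no-enzyme and no-compound controls.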
# TYK2 = TYK2 (Homo sapiens, UniProt P29597); test: JAK kinase activity, homogeneous time-resolved fluorescence (TYK2 reaction system); conditions: ATP 2 μM, TYK2 protein 0.2 ng/μL; read-out: TYK 2 activity
# Outline: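 Activity read as the 665 nm/615 nm ratio after adding EDTA-containing detection mix with anti-phospho-substrate antibody and XL-615. Beforehand, 0.2 ng/μL TYK2, 2 μM ATP, substrate and compound reacted 1 h in pH 7.0 Hepes buffer with MgCl2 and DTT. IC50 fitted with Hill-slope equation.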
# Chain of JAK2 (O60674 whole entry): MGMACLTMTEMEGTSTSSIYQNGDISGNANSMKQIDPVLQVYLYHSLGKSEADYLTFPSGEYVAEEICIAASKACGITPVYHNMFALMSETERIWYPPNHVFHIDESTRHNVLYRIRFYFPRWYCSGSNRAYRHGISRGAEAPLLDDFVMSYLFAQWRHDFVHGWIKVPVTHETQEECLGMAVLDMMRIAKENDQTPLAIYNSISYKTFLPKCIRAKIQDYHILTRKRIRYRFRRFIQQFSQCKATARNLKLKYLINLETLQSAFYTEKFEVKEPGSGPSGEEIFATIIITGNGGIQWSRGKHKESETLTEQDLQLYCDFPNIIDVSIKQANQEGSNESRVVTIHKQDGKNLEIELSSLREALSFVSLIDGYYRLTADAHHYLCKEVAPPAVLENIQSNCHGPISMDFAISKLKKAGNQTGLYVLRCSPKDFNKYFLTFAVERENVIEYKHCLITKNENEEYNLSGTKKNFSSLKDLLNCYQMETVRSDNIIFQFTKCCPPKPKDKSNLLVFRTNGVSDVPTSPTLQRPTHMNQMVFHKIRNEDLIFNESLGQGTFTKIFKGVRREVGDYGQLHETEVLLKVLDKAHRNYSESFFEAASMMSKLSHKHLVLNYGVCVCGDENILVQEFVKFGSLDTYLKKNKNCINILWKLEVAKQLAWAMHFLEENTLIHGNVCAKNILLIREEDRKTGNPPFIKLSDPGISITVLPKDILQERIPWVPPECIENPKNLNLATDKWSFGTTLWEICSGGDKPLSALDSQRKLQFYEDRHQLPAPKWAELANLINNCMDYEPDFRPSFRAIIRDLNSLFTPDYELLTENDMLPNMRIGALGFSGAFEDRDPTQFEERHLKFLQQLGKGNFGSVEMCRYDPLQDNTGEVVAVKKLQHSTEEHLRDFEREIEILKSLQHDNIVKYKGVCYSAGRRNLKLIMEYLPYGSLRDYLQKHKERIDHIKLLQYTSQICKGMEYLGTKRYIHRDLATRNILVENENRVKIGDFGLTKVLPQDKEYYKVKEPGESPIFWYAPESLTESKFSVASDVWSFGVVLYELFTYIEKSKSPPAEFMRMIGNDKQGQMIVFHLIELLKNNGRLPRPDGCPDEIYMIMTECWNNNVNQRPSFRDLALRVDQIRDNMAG
# Chain of TYK2 (P29597 whole entry): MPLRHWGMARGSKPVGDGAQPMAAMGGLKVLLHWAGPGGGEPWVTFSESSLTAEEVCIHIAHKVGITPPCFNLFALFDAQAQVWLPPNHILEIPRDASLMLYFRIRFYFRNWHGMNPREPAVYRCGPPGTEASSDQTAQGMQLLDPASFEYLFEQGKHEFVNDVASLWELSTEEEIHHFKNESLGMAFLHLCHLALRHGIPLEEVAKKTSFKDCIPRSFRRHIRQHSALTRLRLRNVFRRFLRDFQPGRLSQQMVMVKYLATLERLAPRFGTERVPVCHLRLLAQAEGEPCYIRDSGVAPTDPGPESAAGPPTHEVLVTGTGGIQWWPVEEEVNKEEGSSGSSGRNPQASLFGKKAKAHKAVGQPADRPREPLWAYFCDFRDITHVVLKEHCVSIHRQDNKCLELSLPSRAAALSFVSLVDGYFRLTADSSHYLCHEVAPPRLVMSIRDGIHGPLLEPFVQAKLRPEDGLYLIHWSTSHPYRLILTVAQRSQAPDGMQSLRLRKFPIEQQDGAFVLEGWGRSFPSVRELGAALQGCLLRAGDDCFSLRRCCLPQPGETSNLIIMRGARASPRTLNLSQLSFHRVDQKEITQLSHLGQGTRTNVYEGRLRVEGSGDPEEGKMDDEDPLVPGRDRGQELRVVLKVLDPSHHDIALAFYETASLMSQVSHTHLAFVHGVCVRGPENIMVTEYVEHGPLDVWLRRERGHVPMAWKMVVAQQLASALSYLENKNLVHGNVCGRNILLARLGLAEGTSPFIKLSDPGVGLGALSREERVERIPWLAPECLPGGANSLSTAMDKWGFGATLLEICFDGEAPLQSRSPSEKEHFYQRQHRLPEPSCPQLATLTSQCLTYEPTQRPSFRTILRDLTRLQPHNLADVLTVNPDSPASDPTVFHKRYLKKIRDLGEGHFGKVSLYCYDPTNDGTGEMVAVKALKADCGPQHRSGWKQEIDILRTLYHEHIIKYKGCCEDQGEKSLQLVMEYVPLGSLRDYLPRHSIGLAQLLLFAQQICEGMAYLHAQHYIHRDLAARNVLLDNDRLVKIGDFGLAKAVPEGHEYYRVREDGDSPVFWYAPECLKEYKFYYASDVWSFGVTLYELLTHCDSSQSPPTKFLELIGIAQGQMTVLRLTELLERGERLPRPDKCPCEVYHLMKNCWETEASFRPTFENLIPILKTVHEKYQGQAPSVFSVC
# Chain of JAK1 (P23458 whole entry): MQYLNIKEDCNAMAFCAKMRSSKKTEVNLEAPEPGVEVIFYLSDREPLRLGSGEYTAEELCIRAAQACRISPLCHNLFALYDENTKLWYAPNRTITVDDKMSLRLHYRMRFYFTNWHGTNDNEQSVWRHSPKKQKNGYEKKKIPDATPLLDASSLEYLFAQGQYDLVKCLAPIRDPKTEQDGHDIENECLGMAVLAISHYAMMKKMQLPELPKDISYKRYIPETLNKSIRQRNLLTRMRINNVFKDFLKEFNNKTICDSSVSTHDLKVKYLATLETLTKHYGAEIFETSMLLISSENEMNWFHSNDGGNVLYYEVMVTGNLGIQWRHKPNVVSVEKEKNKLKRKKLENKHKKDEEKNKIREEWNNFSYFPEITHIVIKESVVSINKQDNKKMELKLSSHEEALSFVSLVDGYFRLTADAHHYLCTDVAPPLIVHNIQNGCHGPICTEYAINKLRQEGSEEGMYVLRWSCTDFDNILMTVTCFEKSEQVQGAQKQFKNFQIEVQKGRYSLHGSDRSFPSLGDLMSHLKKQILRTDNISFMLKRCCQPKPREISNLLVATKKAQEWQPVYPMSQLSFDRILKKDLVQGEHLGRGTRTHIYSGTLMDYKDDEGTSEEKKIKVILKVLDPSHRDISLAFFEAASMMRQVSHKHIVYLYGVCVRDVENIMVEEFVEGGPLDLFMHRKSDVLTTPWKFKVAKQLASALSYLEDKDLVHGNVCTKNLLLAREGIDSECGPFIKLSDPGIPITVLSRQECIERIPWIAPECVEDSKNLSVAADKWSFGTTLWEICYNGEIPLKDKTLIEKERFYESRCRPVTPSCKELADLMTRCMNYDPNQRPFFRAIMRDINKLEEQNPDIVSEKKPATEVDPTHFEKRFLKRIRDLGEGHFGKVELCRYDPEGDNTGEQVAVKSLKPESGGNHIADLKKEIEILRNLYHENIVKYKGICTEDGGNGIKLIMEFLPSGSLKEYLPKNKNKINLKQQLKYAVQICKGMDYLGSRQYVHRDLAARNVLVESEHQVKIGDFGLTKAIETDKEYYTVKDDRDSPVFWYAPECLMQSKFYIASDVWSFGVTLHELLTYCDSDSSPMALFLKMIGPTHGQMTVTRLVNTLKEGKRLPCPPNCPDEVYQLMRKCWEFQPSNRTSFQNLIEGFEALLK
structure (smiles),measurement,setting,value
"CN(C)C(=O)C(C)(C)Oc1ccc2cc1COCCCCNC(=O)c1ccc(c(N)c1)-c1ccnc(n1)N2 [Example 179, 2-((1^2-amino-12-oxo-6-oxa-3,11-di-aza-2(4,2)-pyrimidina-1(1,4),4(1,3)-dibenzenacyclododecaphan-4^4-yl)oxy)-N,N-trimethylpropoiona-mide]",IC50,JAK2,1000 to 10000 nM
same,IC50,JAK3,101 to 1000 nM
same,IC50,JAK1,1000 to 10000 nM
same,IC50,TYK2,> 10000 nM
